# According to ChEMBL document CHEMBL1240320, “Antibacterial lysine analogs that target lysine riboswitches” (Nat Chem Biol, 2007):
# Activity calls are given as the source filed them. The calls are words filed in the database; no cut-off is given here.
# Legend:
# Bacillus subtilis [1] = experiment: Antibacterial activity against Bacillus subtilis 168 1A1 after 24 hrs by CLSI method; type: functional
# Bacillus subtilis [2] = experiment: Antibacterial activity against Bacillus subtilis 168 1A1 at 100 uM after 24 hrs by CLSI method; type: functional, organism-based; settings: subsp. subtilis str. 168 1A1
# Nucleic Acid [3] = experiment: Binding affinity to Bacillus subtilis 168 1A1 lysine riboswitch 179 lysc by in-line probing assay; type: nucleic-acid assay, Bacillus subtilis subsp. subtilis str. 168
# Bacillus subtilis [4] = experiment: Antibacterial activity against L-4-oxalysine-resistant Bacillus subtilis 168 M2 assessed as inhibition of viable spore formation at 2 mM after 22 to 24 hrs; type: functional, subsp. subtilis str. 168 M2
# Bacillus subtilis [5] = experiment: Antibacterial activity against Bacillus subtilis 168 M2 harboring adenosine deletion within 95 to 97 sequence in loop E of P2 motif after 24 hrs by CLSI method; type: functional
# Nucleic Acid [6] = experiment: Binding affinity to lysine riboswitch 179 lysc of Bacillus subtilis 168 M2 harboring adenosine deletion within 95 to 97 sequence in loop E of P2 motif; type: nucleic-acid assay, Bacillus subtilis subsp. subtilis str. 168
# Bacillus subtilis [7] = experiment: Antibacterial activity against Bacillus subtilis 1A40 at 1 mM after 3 hrs by CLSI method; type: functional, organism-based
# Bacillus subtilis [8] = experiment: Antibacterial activity against wild type Bacillus subtilis 168 1A1 assessed as inhibition of viable spore formation at 0.2 mM after 22 to 24 hrs; type: functional, subsp. subtilis str. 168 1A1
# Nucleic Acid [9] = experiment: Binding affinity to lysine riboswitch 179 lysc of Bacillus subtilis 168 M1 harboring G163A mutation in P4 motif; type: nucleic-acid assay, Bacillus subtilis subsp. subtilis str. 168
# Nucleic Acid [10] = experiment: Binding affinity to Bacillus subtilis 168 1A1 lysine riboswitch 179 lysc; type: nucleic-acid assay, Bacillus subtilis subsp. subtilis str. 168
# Bacillus subtilis [11] = experiment: Antibacterial activity against wild type Bacillus subtilis 168 1A1 assessed as inhibition of viable spore formation at 2 mM after 22 to 24 hrs; type: functional, subsp. subtilis str. 168 1A1
# Bacillus subtilis [12] = experiment: Antibacterial activity against Bacillus subtilis 168 M1 harboring G163A mutation in P4 motif after 24 hrs by CLSI method; type: functional
# [13] = subsp. subtilis str. 168 1A1, 24 h
# [14] = subsp. subtilis str. 168 M2, 24 h
# [15] = subsp. subtilis str. 168 M1, 24 h
smiles,measurement,setting,value
CC(=N)NCCCC[C@H](N)C(=O)O [L-NIL],MIC,Bacillus subtilis [1]; [13],> 5 mM
same,Activity,Bacillus subtilis [2],inactive
same,Kd,Nucleic Acid [3],11 µM
NCCOC[C@H](N)C(=O)O,MIC,Bacillus subtilis [1]; [13],0.173 mM
same,Activity,Bacillus subtilis [2],Active
same,Activity,Bacillus subtilis [4],65%
same,MIC,Bacillus subtilis [5]; [14],1.56 mM
same,Kd,Nucleic Acid [6],75 µM
same,Kd,Nucleic Acid [3],13 µM
same,Activity,Bacillus subtilis [7],Active
same,Activity,Bacillus subtilis [8],71%
same,Kd,Nucleic Acid [9],29 µM
same,Kd,Nucleic Acid [10],26 µM
same,Activity,Bacillus subtilis [11],6%
same,MIC,Bacillus subtilis [12]; [15],1.56 mM
Nc1cc(C[C@H](N)C(=O)O)ccc1O,MIC,Bacillus subtilis [1]; [13],> 5 mM
same,Kd,Nucleic Acid [3],> 1000 µM
same,Activity,Bacillus subtilis [11],75%
NC/C=C/CC(N)C(=O)O (racemic),MIC,Bacillus subtilis [1]; [13],0.938 mM
same,Activity,Bacillus subtilis [2],Active
same,MIC,Bacillus subtilis [5]; [14],> 5 mM
same,Kd,Nucleic Acid [3],0.97 µM
same,Activity,Bacillus subtilis [7],Active
same,MIC,Bacillus subtilis [12]; [15],> 5 mM
Nc1ccccc1C(=O)C[C@H](N)C(=O)O [L-KYNURENINE],MIC,Bacillus subtilis [1]; [13],> 5 mM
same,Kd,Nucleic Acid [3],> 1000 µM
NCCCC[C@H](N)C(=O)O [LYSINE],MIC,Bacillus subtilis [1]; subsp. subtilis str. 168 1A1,inactive
same,MIC,Bacillus subtilis [5]; subsp. subtilis str. 168 M2,inactive
same,Kd,Nucleic Acid [6],2.9 µM
same,Kd,Nucleic Acid [3],0.36 µM
same,Activity,Bacillus subtilis [7],inactive
same,Kd,Nucleic Acid [9],3 µM
same,Kd,Nucleic Acid [10],1.7 µM
same,MIC,Bacillus subtilis [12]; subsp. subtilis str. 168 M1,inactive
C[N+](C)(C)CCCC[C@H](N)C(=O)O [TRIMETHYLLYSINE],MIC,Bacillus subtilis [1]; [13],> 5 mM
same,Kd,Nucleic Acid [3],> 1000 µM
CC(=O)N[C@@H](CCCCN)C(=O)O,MIC,Bacillus subtilis [1]; [13],> 5 mM
same,Kd,Nucleic Acid [3],> 1000 µM
CN[C@@H](CCCCN)C(=O)O,MIC,Bacillus subtilis [1]; [13],> 5 mM
same,Kd,Nucleic Acid [3],> 1000 µM
N=C(N)NCCCC[C@H](N)C(=O)O,MIC,Bacillus subtilis [1]; [13],> 5 mM
same,Kd,Nucleic Acid [3],7 µM
same,Activity,Bacillus subtilis [7],inactive
NCCSC[C@H](N)C(=O)O,Activity,Nucleic Acid [3]; subsp. subtilis str. 168 1A1,Active
CC(=O)NCCCC[C@H](N)C(=O)O,MIC,Bacillus subtilis [1]; [13],> 5 mM
same,Kd,Nucleic Acid [3],> 1000 µM
NCCS(=O)(=O)C[C@H](N)C(=O)O,MIC,Bacillus subtilis [1]; [13],0.026 mM
same,Activity,Bacillus subtilis [2],Active
same,Activity,Bacillus subtilis [4],17%
same,MIC,Bacillus subtilis [5]; [14],3.44 mM
same,Kd,Nucleic Acid [6],24 µM
same,Kd,Nucleic Acid [3],2.5 µM
same,Activity,Bacillus subtilis [7],Active
same,Activity,Bacillus subtilis [8],7%
same,Kd,Nucleic Acid [9],14 µM
same,Kd,Nucleic Acid [10],13 µM
same,Activity,Bacillus subtilis [11],0%
same,MIC,Bacillus subtilis [12]; [15],1.56 mM
NCC(=O)CCC(N)C(=O)O (racemic),MIC,Bacillus subtilis [1]; [13],> 5 mM
same,Activity,Bacillus subtilis [4],9%
same,Kd,Nucleic Acid [3],> 1000 µM
same,Activity,Bacillus subtilis [11],47%
